{"source": "patent US9907795B2", "about": "“Method of treatment of chronic cough administering orvepitant in combination with other therapeutic agents” (NeRRe Therapeutics Limited, priority 2016, dated 2018)", "assay_type_in_all_cases": "in vivo, human", "key": {"[1]": {"tested_on": "patients with a diagnosis of chronic treatment-refractory cough", "test": "Objective cough frequency by ambulatory cough monitor, open-label pilot study", "conditions": "for daytime objective cough frequency, mean change from Baseline: Week 4 (end of treatment) vs Baseline, 30 mg once daily, p<0.001, primary endpoint", "experimental": "(§1) Orvepitant maleate Form 1 was evaluated in an open-label pilot study to determine the efficacy of multiple dosing in male and female patients with a diagnosis of chronic treatment-refractory cough for over 3 months. The study was a single-arm (30 mg orvepitant maleate Form 1 once daily), 4-week study with a 4 week follow-up. There were five scheduled clinic visits; Screening visit, Baseline visit, Week 1 visit, Week 4 visit (end of treatment period) and a Week 8 Follow-up visit. The following instruments were used to assess efficacy: • Subjects were fitted with an ambulatory cough monitor (ACM) to record objective cough frequency over 24 hours at Screening, Weeks 1, 4 and 8 • Cough-specific Quality of Life Questionnaire (CQLQ): Subjects were asked to complete this questionnaire at Screening, Weeks 1, 4 and 8 • Global Rating of Change for Cough Frequency & Severity Scale: Subjects were asked to complete this scale at Weeks 1, 4 and 8 • Cough Severity VAS: Subjects were issued with diaries for daily recording of Cough Severity VAS scores. 13 subjects were enrolled into the study and provided data on cough frequency, Cough QOL, Global Rating of Change for Cough Frequency and Severity, and Cough Severity VAS, but one of the 13 subjects had data missing on cough frequency (day and night) at week 4. The primary endpoint was change in objective daytime cough frequency at the end of the treatment period at Week 4 compared to Baseline."}, "[2]": {"tested_on": "patients with a diagnosis of chronic treatment-refractory cough", "test": "Cough-specific Quality of Life Questionnaire (CQLQ), open-label pilot study", "experimental": "as §1, with “4.” for “4. The primary endpoint was change in objective daytime cough frequency at the end of the treatment period at Week 4 compared to Baseline.”"}, "[3]": {"tested_on": "patients with a diagnosis of chronic treatment-refractory cough", "test": "Global Rating of Change for Cough Frequency & Severity Scale, open-label pilot study", "experimental": "as §1, with “4.” for “4. The primary endpoint was change in objective daytime cough frequency at the end of the treatment period at Week 4 compared to Baseline.”"}, "[4]": {"tested_on": "patients with a diagnosis of chronic treatment-refractory cough", "test": "Cough Severity VAS (daily diary), open-label pilot study", "experimental": "as §1, with “4.” for “4. The primary endpoint was change in objective daytime cough frequency at the end of the treatment period at Week 4 compared to Baseline.”"}}, "note": "Where a name gives a salt, the structure may show the parent alone.", "data": [{"smiles": "Cc1cc(F)ccc1[C@H]1C[C@@H](N2CCN3C(=O)CC[C@H]3C2)CCN1C(=O)N(C)[C@H](C)c1cc(C(F)(F)F)cc(C(F)(F)F)c1", "note": "[Orvepitant maleate Form 1, 2-(R)-(4-Fluoro-2-methyl-phenyl)-4-(S)-((8aS)-6-oxo-hexahydro-pyrrolo[1,2-α]-pyrazin-2-yl)-piperidine-1-carboxylic acid [1-(R)-(3,5-bis-trifluoromethyl-phenyl)-ethyl]-methylamide maleate]", "values": [{"measurement": "reduction in mean night-time objective cough frequency", "setting": "[1]; Week 1 vs Baseline, p=0.19", "value": "no significant reduction"}, {"measurement": "daytime objective cough frequency, mean change from Baseline", "setting": "[1]; negative binomial regression model", "value": "−18.9", "unit": "coughs/hr"}, {"measurement": "daytime objective cough frequency, mean change from Baseline", "setting": "[1]", "value": "−26", "unit": "%"}, {"measurement": "reduction in mean night-time objective cough frequency", "setting": "[1]; Week 4 vs Baseline, p=0.65", "value": "no significant reduction"}, {"measurement": "change in daytime objective cough frequency", "setting": "[1]; Week 8 compared to Week 4, p=0.86", "value": "no significant change"}, {"measurement": "reduction in mean night-time objective cough frequency", "setting": "[1]; between Weeks 4 and 8, p=0.10", "value": "no significant reduction"}, {"measurement": "CQLQ Overall score, mean change from Baseline", "setting": "[2]; Week 1, p<0.001", "value": "−4.0"}, {"measurement": "CQLQ Overall score, mean change from Baseline", "setting": "[2]; Week 4, p=0.005", "value": "−4.4"}, {"measurement": "CQLQ Overall score, mean change from Baseline", "setting": "[2]; Week 8, p=0.033", "value": "−3.4"}, {"measurement": "CQLQ Extreme Physical domain, change from Baseline", "setting": "[2]; Weeks 1, 4 and 8", "value": "significant changes from Baseline"}, {"measurement": "CQLQ Psychosocial domain, change from Baseline", "setting": "[2]; Weeks 1, 4 and 8", "value": "significant changes from Baseline"}, {"measurement": "CQLQ Overall score, difference", "setting": "[2]; between Weeks 4 and 8, p=0.52", "value": "no significant difference"}, {"measurement": "CQLQ, any of the domains, change", "setting": "[2]; from Week 4 to Week 8", "value": "no significant changes"}, {"measurement": "CQLQ Emotional domain, change", "setting": "[2]; in vivo", "value": "No significant changes"}, {"measurement": "Global Rate of Change, cough frequency: subjects who felt worse", "setting": "[3]; Week 1", "value": "No subjects felt worse"}, {"measurement": "Global Rate of Change, cough severity: subjects who felt worse", "setting": "[3]; Week 1", "value": "No subjects felt worse"}, {"measurement": "Global Rate of Change, cough frequency: median improvement score", "setting": "[3]; Week 1, 3 = somewhat better", "value": 3}, {"measurement": "Global Rate of Change, cough severity: median improvement score", "setting": "[3]; Week 1, 4 = moderately better", "value": 4}, {"measurement": "Global Rate of Change, cough frequency: subjects who felt worse", "setting": "[3]; Week 4", "value": "No subjects felt worse"}, {"measurement": "Global Rate of Change, cough severity: subjects who felt worse", "setting": "[3]; Week 4", "value": "No subjects felt worse"}, {"measurement": "Global Rate of Change, cough frequency: median improvement score", "setting": "[3]; Week 4, 3 = somewhat better", "value": 3}, {"measurement": "Global Rate of Change, cough severity: median improvement score", "setting": "[3]; Week 4, 3 = somewhat better", "value": 3}, {"measurement": "night-time cough severity VAS, average change from Baseline", "setting": "[4]; Week 1 of study, p=0.01", "value": "−14", "unit": "%"}, {"measurement": "daytime cough severity VAS, average change from Baseline", "setting": "[4]; Week 2 of study, p=0.002", "value": "−39", "unit": "%"}, {"measurement": "daytime cough severity VAS, average change from Baseline", "setting": "[4]; Week 6 of study, p=0.001", "value": "−14", "unit": "%"}, {"measurement": "night-time cough severity VAS, average change from Baseline", "setting": "[4]; Week 6 of study, p=0.017", "value": "−18", "unit": "%"}]}]}
